Reference: US4211772A, “Benzopyran glycoside acetals and ketals” (Laboratoires Sarget, priority 1977, dated 1980)
In brackets after ≈: the same amount, converted by molar mass. Like-named read-outs stand apart in the source and are kept apart here.

Assays:
Solubilities in water = format: physicochemical; details: water
Aldose Reductase = molecular target: T1, Aldose Reductase (Bos taurus, UniProt P16116); experiment: Inhibition of aldose reductase in vitro (enzyme from beef eye lenses, glyceraldehyde substrate); format: biochemical; details: in DMF solution, read-out: percentages of inhibition (aldose reductase); for inhibition at 100 µM: 10^-4 mole/l; for inhibition at 10 µM: 10^-5 mole/l; for inhibition at 1 µM: 10^-6 mole/l
T1 construct: The enzyme is extracted from beef eye lenses; from tissue; host or cells: beef eye lenses
From the text: Inhibition of Aldose Reductase In Vitro
The reoxidation of NADPH coupled to the enzymatic reaction was followed spectrophotometrically at 340 nm.

COMT = molecular target: T2, COMT (Rattus norvegicus, UniProt P22734); experiment: Inhibition of COMT in vitro (enzyme from rat liver, 4-nitrocatechol substrate); format: biochemical; details: in dimethylsulfoxide solution, read-out: percentages of inhibition (COMT); for inhibition at 1000 µM: 10^-3 mole/l; for inhibition at 100 µM: 10^-4 mole/l; for inhibition at 10 µM: 10^-5 mole/l
T2 construct: The enzyme is extracted from rat liver; from tissue; host or cells: rat liver
T2 sequence (P22734 1-221 isoform P22734-2): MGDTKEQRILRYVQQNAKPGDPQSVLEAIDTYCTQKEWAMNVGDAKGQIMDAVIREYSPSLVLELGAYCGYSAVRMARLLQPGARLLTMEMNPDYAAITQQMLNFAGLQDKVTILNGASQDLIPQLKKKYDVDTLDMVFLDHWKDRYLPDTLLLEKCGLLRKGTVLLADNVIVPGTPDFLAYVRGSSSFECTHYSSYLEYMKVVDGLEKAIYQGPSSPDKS
Method: Inhibition of COMT in vitro The enzyme is extracted from rat liver by the method described by Axelrod et al, J. Biol. Chem., 233, 702(1958); its activity is measured in the presence of S-adenosyl methionine and using as substrate 4-nitrocatechol by the method described by Lee et al, J. Pharm. Sci., 66(7), 986(1977). The quantity of 4-nitrocatechol consumed was determined spectrophotometrically at 520 nm in alkaline medium.

carragenin edema = experiment: Anti-inflammatory activity: carragenin edema test; format: in vivo; details: Rattus norvegicus, ip, saturated bicarbonate solution, read-out: % inhibition of carragenin edema; for inhibition in vivo at 50 mg/kg: 50 mg/kg i.p.; for inhibition in vivo at 100 mg/kg: 100 mg/kg i.p.
Method: Anti-inflammatory activity
This was determined by the carragenin edema test using male Wistar EOPS rats. Inflammation was induced by the injection of 0.1 ml of a suspension of 5% carragenin in physiological serum into the muscular bundle of the metatarsal region of the posterior paw of the animal. The test substance was administered i.p. in neutralized solution at the same time as the carragenin.
Edema was measured by plethysmometry at different times after the administration of the carragenin.
Tables IV and V show the percentages of inhibition as a function of time and of dosage for certain compounds of the present invention.
The above results were obtained for solutions of substantially alkaline
The reference experiments were performed using physiological serum brough
to a pH approximately the same as the pH of the solutions to be tested.

Row | Structure (SMILES) | inhibition at 100 µM (Aldose Reductase) [%] | inhibition at 10 µM (Aldose Reductase) [%] | inhibition at 1 µM (Aldose Reductase) [%] | inhibition at 1000 µM (COMT) [%] | inhibition at 100 µM (COMT) [%] | inhibition at 10 µM (COMT) [%] | further results
1 | COc1ccc([C@@H]2CC(=O)c3c(O)cc(O[C@@H]4O[C@H](CO[C@@H]5O[C@@H](C)[C@H](O)[C@@H](O)[C@H]5O)[C@@H](O)[C@H](O)[C@H]4O)cc3O2)cc1O [Hesperidin, reference compound] | – | – | – | – | – | – | solubility (Solubilities in water; read-out: Solubilities in water): 0.02 mg/mL (≈ 32.8 µM)
2 | C[C@@H]1O[C@@H](Oc2c(-c3cc(O)c(O)c(O)c3)oc3cc(O)cc(O)c3c2=O)[C@H](O)[C@H](O)[C@H]1O [Myricitrin, reference compound] | 83 | 56 | 9 | – | – | – | –
3 | C[C@@H]1O[C@@H](O[C@H]2[C@H](Oc3cc(O)c4c(c3)O[C@H](c3ccc(O)cc3)CC4=O)O[C@H](CO)[C@@H](O)[C@@H]2O)[C@H](O)[C@H](O)[C@H]1O [Naringin, reference compound] | 33 | – | – | – | – | – | –
4 | C[C@@H]1O[C@@H](Oc2c(-c3cc(O)c(O)c(O)c3)oc3cc(O)cc(O)c3c2=O)[C@@H]2OC(C)(C)O[C@@H]2[C@H]1O [No. 14, 3-O-(2,3-O,O-isopropylidene-α-L-rhamnosyl)myricitin] | 93 | 83 | 11 | – | – | – | –
5 | O=c1ccc2cc(O[C@@H]3O[C@@H]4COC(c5ccc(O)c(O)c5)O[C@H]4[C@H](O)[C@H]3O)c(O)cc2o1 (stereo partly drawn) [No. 24, 6-O-(4,6-O,O-(3,4-dihydroxybenzylidene)-β-D-glucosyl) esculetol] | 71 | 0 | – | – | – | – | –
6 | C[C@@H]1O[C@@H](OC[C@H]2O[C@@H](Oc3c(-c4ccc(O)c(O)c4)oc4cc(O)cc(O)c4c3=O)[C@H](O)[C@@H](O)[C@@H]2O)[C@@H]2OC3(CCC4CCCCC4C3)O[C@@H]2[C@H]1O (stereo partly drawn) [No. 28, 3-O-(2,3-O,O-(2-perhydronaphthylidene)-6-α-L-rhamnosyl-β-D-glucosyl) quercetin] | 67 | 62 | 0 | 76 | 52 | 0 | –
7 | C[C@@H]1O[C@@H](Oc2c(-c3ccc(O)c(O)c3)oc3cc(O)cc(O)c3c2=O)[C@H](O)[C@H](O)[C@H]1O [Quercitrin, reference compound] | – | – | – | – | – | – | Solubilities in water (Solubilities in water): insoluble
8 | O=c1c(O)c(-c2ccc(O)c(O)c2)oc2cc(O)cc(O)c12 [quercetin, reference compound] | – | – | – | – | – | – | inhibition in vivo at 50 mg/kg (carragenin edema; 1/2 h): 0%; inhibition in vivo at 100 mg/kg (carragenin edema; 1/2 h): 2%; inhibition in vivo at 50 mg/kg (carragenin edema; 1 h, 1 h 1/2): 0%; inhibition in vivo at 50 mg/kg (carragenin edema; 1 h, 1 h): 0%; inhibition in vivo at 100 mg/kg (carragenin edema; 1 h, 1 h 1/2): 8%; inhibition in vivo at 100 mg/kg (carragenin edema; 1 h, 1 h): 0%; inhibition in vivo at 50 mg/kg (carragenin edema; 2 h, 2 h): 0%; inhibition in vivo at 100 mg/kg (carragenin edema; 2 h, 2 h): 7%; inhibition in vivo at 50 mg/kg (carragenin edema; 3 h, 3 h): 0%; inhibition in vivo at 100 mg/kg (carragenin edema; 3 h, 3 h): 0%; inhibition in vivo at 50 mg/kg (carragenin edema; 4 h, 4 h): 0%; inhibition in vivo at 100 mg/kg (carragenin edema; 4 h, 4 h): 0%; inhibition in vivo at 50 mg/kg (carragenin edema; 5 h, 5 h): 0%; inhibition in vivo at 100 mg/kg (carragenin edema; 5 h, 5 h): 0%; inhibition in vivo at 50 mg/kg (carragenin edema; 6 h, 6 h): 0%; inhibition in vivo at 100 mg/kg (carragenin edema; 6 h, 6 h): 0%

Further lines, with some results ahead:

Row | inhibition at 100 µM (Aldose Reductase) [%] | inhibition at 10 µM (Aldose Reductase) [%] | inhibition at 1 µM (Aldose Reductase) [%] | inhibition at 1000 µM (COMT) [%] | inhibition at 100 µM (COMT) [%] | inhibition at 10 µM (COMT) [%] | Structure (SMILES) | further results
9 | 92 | 79 | 0 | 80 to 100 | 80 to 92 | 45 | COc1ccc(C2O[C@@H]3[C@@H](O)[C@H](C)O[C@@H](OC[C@H]4O[C@@H](Oc5c(-c6ccc(O)c(O)c6)oc6cc(O)cc(O)c6c5=O)[C@H](O)[C@@H](O)[C@@H]4O)[C@@H]3O2)cc1 (stereo partly drawn) [No. 22, 3-O-(2,3-O,O-p-methoxybenzylidene-6-α-L-rhamnosyl-β-D-glucosyl)quercetin] | –
10 | 80 | 41 | – | 80 | 90 | 40 | C[C@@H]1O[C@@H](OC[C@H]2O[C@@H](Oc3c(-c4ccc(O)c(O)c4)oc4cc(O)cc(O)c4c3=O)[C@H](O)[C@@H](O)[C@@H]2O)[C@@H]2OC(c3ccc(O)cc3)O[C@@H]2[C@H]1O (stereo partly drawn) [No. 23, 3-O-(2,3-O,O-p-hydroxybenzylidene-6-α-L-rhamnosyl-β-D-glucosyl)quercetin] | –
11 | 100 | 92 | 44 | – | 81 to 83 | 33 to 36 | C[C@@H]1O[C@@H](OC[C@H]2O[C@@H](Oc3c(-c4ccc(O)c(O)c4)oc4cc(O)cc(O)c4c3=O)[C@H](O)[C@@H](O)[C@@H]2O)[C@@H]2OC3(O[C@@H]2[C@H]1O)C1CC2CC(C1)CC3C2 (stereo partly drawn) [No. 33, 3-O-(2,3-O,O-adamantylidene-6-α-L-rhamnosyl-β-D-glucosyl)quercetin] | inhibition at 0.1 µM (Aldose Reductase; 10^-7 mole/l): 7%
12 | 100 | 72 | 26 | 90 | 74 | 72 | Cc1ccc(C2(C)O[C@@H]3[C@@H](O)[C@H](C)O[C@@H](OC[C@H]4O[C@@H](Oc5c(-c6ccc(O)c(O)c6)oc6cc(O)cc(O)c6c5=O)[C@H](O)[C@@H](O)[C@@H]4O)[C@@H]3O2)cc1 (stereo partly drawn) [No. 35, 3-O-(2,3-O,O-(α-methyl-p-methylbenzylidene)-6-α-L-rhamnosyl-β-D-glucosyl) quercetin] | –
13 | 100 | 69 | 22 | 91 | – | 15 to 22 | COc1ccc(C2(C)O[C@@H]3[C@@H](O)[C@H](C)O[C@@H](OC[C@H]4O[C@@H](Oc5c(-c6ccc(O)c(O)c6)oc6cc(O)cc(O)c6c5=O)[C@H](O)[C@@H](O)[C@@H]4O)[C@@H]3O2)cc1 (stereo partly drawn) [No. 36, 3-O-(2,3-O,O-(α-methyl-p-methoxybenzylidene)-6-α-L-rhamnosyl-β-D-glucosyl) quercetin] | –
14 | 100 | 59 | 24 | 100 | 74 | 27 | C[C@@H]1O[C@@H](OC[C@H]2O[C@@H](Oc3c(-c4ccc(O)c(O)c4)oc4cc(O)cc(O)c4c3=O)[C@H](O)[C@@H](O)[C@@H]2O)[C@@H]2OC(C)(c3ccc(Cl)cc3)O[C@@H]2[C@H]1O (stereo partly drawn) [No. 37, 3-O-(2,3-O,O-(α-methyl-p-chlorobenzylidene)-6-α-L-rhamnosyl-β-D-glucosyl) quercetin] | –
